Like-named read-outs stand apart in the source and are kept apart here.
Legend:
HCT116 cells = test: HCT116 Cell Titer Glow assay (CTG); settings: for IC50: read-out: CTG IC50 (nM) Cell Line: HCT116.20
IPC298 cells = test: IPC298 Cell Titer Glow assay (CTG); settings: for IC50: read-out: CTG IC50 (nM) Cell Line: IPC298.2
[1] = Homo sapiens, HCT-116, 72 h, read-out: CTG % cell viability 1000 uM HCT116.20
[2] = Homo sapiens, IPC-298, 72 h, read-out: CTG % cell viability 100 uM IPC298.2
[3] = Homo sapiens, HCT-116, 72 h, read-out: CTG % cell viability 1000 uM HCT116.20, HCT116 cells, 72 hours, 1000 uM, percent cells remaining after treatment
[4] = Homo sapiens, IPC-298, 72 h, read-out: CTG % cell viability 100 uM IPC298.2, IPC298 cells, 72 hours, 100 uM, percent cells remaining after treatment

SMILES	IC50 (HCT116 cells; Homo sapiens, HCT-116, 72 h) [nM]	IC50 (IPC298 cells; Homo sapiens, IPC-298, 72 h) [nM]	further results
CNS(=O)(=O)Nc1nccc(Cc2cncc(NC3CC4(C3)CN(C)C4)c2C)c1F [Example 85, N-[5-[[3-fluoro-2-(methylsulfamoylamino)-4-pyridyl]methyl]-4-methyl-3-pyridyl]-2-methyl-2-azaspiro[3.3]heptan-6-amine]	> 1000	> 1000	viability at 1000 µM (HCT116 cells; [1]): 102%; viability at 100 µM (IPC298 cells; [2]): 106%
CNS(=O)(=O)Nc1nccc(Cc2cncc(OC3CCC(C)CC3)c2C)c1F (single isomer, unassigned) [Example 74, 3-fluoro-4-[[4-methyl-5-(4-methylcyclohexoxy)-3-pyridyl]methyl]-N-(methylsulfamoyl)pyridin-2-amine]	> 1000	> 1000	viability at 1000 µM (HCT116 cells; [3]): 92.9%; viability at 100 µM (IPC298 cells; [4]): 88.6%
C=CCNc1cncc(Cc2ccnc(NS(=O)(=O)NC)c2F)c1C [Example 68, 4-[[5-(allylamino)-4-methyl-3-pyridyl]methyl]-3-fluoro-N-(methylsulfamoyl)pyridin-2-amine]	500 to 1000	> 1000	
CC#CCOc1cncc(Cc2ccnc(NS(=O)(=O)NC)c2F)c1C [Example 75, 4-[(5-but-2-ynoxy-4-methyl-3-pyridyl)methyl]-3-fluoro-N-(methylsulfamoyl)pyridin-2-amine]	> 1000	> 1000	viability at 1000 µM (HCT116 cells; [3]): 89.1%; viability at 100 µM (IPC298 cells; [4]): 87.5%
CNS(=O)(=O)Nc1ccc(Cc2cncc(Oc3ncc(Cl)cc3F)c2C)cn1 [Example 48, 5-[[5-[(5-chloro-3-fluoro-2-pyridyl)oxy]-4-methyl-3-pyridyl]methyl]-N-(methylsulfamoyl)pyridin-2-amine]			CTG % cell viability 1000 uM HCT116.20 (HCT116 cells; HCT116 cells, 72 hours, 1000 uM, percent cells remaining after treatment): 17.49%; IC50 (HCT116 cells; HCT116 cells, 72 hours): > 1000 nM; IC50 (IPC298 cells; IPC298 cells, 72 hours): > 1000 nM
CNS(=O)(=O)Nc1nccc(Cc2cncc(O[C@H]3CC[C@H](C)CC3)c2C)c1F [Example 63, 3-fluoro-4-[[4-methyl-5-(4-methylcyclohexoxy)-3-pyridyl]methyl]-N-(methylsulfamoyl)pyridin-2-amine]	> 1000	> 1000	viability at 1000 µM (HCT116 cells; [3]): 71.5%; viability at 100 µM (IPC298 cells; [4]): 62.4%
CNS(=O)(=O)Nc1nccc(Cc2cncc(Oc3ccc(C)cc3F)c2C)c1OC [Example 91, 4-[[5-(2-fluoro-4-methyl-phenoxy)-4-methyl-3-pyridyl]methyl]-3-methoxy-N-(methylsulfamoyl)pyridin-2-amine]	10 to 100	< 10	
CNS(=O)(=O)Nc1nccc(Cc2cncc(Oc3ccc(S(C)(=O)=O)cc3)c2C)c1F [Example 72, [(3-fluoro-4-{[5-(4-methanesulfonylphenoxy)-4-methylpyridin-3-yl]methyl}pyridin-2-yl)sulfamoyl](methyl)amine]	500 to 1000	10 to 100	
CNS(=O)(=O)Nc1nccc(Cc2cncc(OCc3ccc(Cl)cc3)c2C)c1F [Example 82, 4-[[5-[(4-chlorophenyl)methoxy]-4-methyl-3-pyridyl]methyl]-3-fluoro-N-(methylsulfamoyl)pyridin-2-amine]	> 1000	> 1000	viability at 1000 µM (HCT116 cells; [3]): 93%; viability at 100 µM (IPC298 cells; [4]): 56%
CNS(=O)(=O)Nc1nccc(Cc2cncc(Oc3cccc(Cl)c3F)c2)c1F [Example 54, 4-[[5-(3-chloro-2-fluoro-phenoxy)-3-pyridyl]methyl]-3-fluoro-N-(methylsulfamoyl)pyridin-2-amine]	> 1000	> 1000	viability at 1000 µM (HCT116 cells; [3]): 81.2%; viability at 1000 µM (IPC298 cells; Homo sapiens, IPC-298, 72 h, read-out: CTG % cell viability 1000 uM IPC298.2, IPC298 cells, 72 hours, 1000 uM, percent cells remaining after treatment): 70.1%
CNS(=O)(=O)Nc1nccc(Cc2cncc(-n3ccc4cc(Cl)ccc43)c2)c1F [Example 59, [(4-{[5-(5-chloroindol-1-yl)pyridin-3-yl]methyl}-3-fluoropyridin-2-yl)sulfamoyl](methyl)amine]	100 to 500	10 to 100	
CNS(=O)(=O)Nc1nccc(Cc2cncc(OC3CC4(C3)CN(C)C4)c2C)c1F [Example 92, 3-fluoro-4-[[4-methyl-5-[(2-methyl-2-azaspiro[3.3]heptan-6-yl)oxy]-3-pyridyl]methyl]-N-(methylsulfamoyl)pyridin-2-amine]	> 1000	> 1000	viability at 1000 µM (HCT116 cells; [1]): 103%; viability at 100 µM (IPC298 cells; [2]): 101%

Further lines, with some results ahead:

IC50 (HCT116 cells; Homo sapiens, HCT-116, 72 h) [nM]	SMILES	IC50 (IPC298 cells; Homo sapiens, IPC-298, 72 h) [nM]	further results
10 to 100	Cc1ccc(Nc2cncc(Cc3ccnc(NS(N)(=O)=O)c3F)c2C)c(F)c1 [Example 96, 3-fluoro-4-[[5-(2-fluoro-4-methyl-anilino)-4-methyl-3-pyridyl]methyl]-2-(sulfamoylamino)pyridine]	< 10	
< 10	CNS(=O)(=O)Nc1nccc(Oc2cncc(Nc3ccc(C4CC4)cc3F)c2C)c1F [Example 97, 4-[[5-(4-cyclopropyl-2-fluoro-anilino)-4-methyl-3-pyridyl]oxy]-3-fluoro-N-(methylsulfamoyl)pyridin-2-amine]	< 10	
10 to 100	CNS(=O)(=O)Nc1nccc(Oc2cncc(Oc3ccc(Br)cc3F)c2C)c1F [Example 100, 4-[[5-(4-bromo-2-fluoro-phenoxy)-4-methyl-3-pyridyl]oxy]-3-fluoro-N-(methylsulfamoyl)pyridin-2-amine]	< 10	
10 to 100	[2H]C([2H])([2H])c1ccc(Oc2cncc(Cc3ccnc(NS(=O)(=O)NC)c3F)c2C)c(F)c1 [Example 101, 3-fluoro-4-[[5-[2-fluoro-4-(trideuteriomethyl)phenoxy]-4-methyl-3-pyridyl]methyl]-N-(methylsulfamoyl)pyridin-2-amine]	< 10	
10 to 100	CNS(=O)(=O)Nc1nccc(Cc2cncc(Nc3ccc(OC(F)F)cn3)c2C)c1F [Example 66, 4-[[5-[[5-(difluoromethoxy)-2-pyridyl]amino]-4-methyl-3-pyridyl]methyl]-3-fluoro-N-(methylsulfamoyl)pyridin-2-amine]	< 10	
10 to 100	CCc1c(Cc2ccnc(NS(=O)(=O)NC)c2F)cncc1Oc1ccc(Cl)cc1 [Example 83, 4-[[5-(4-chlorophenoxy)-4-ethyl-3-pyridyl]methyl]-3-fluoro-N-(methylsulfamoyl)pyridin-2-amine]	< 10	
10 to 100	CNS(=O)(=O)Nc1nccc(Cc2cncc(Oc3ccc(C(F)F)cc3F)c2C)c1F [Example 65, 4-[[5-[4-(difluoromethyl)-2-fluoro-phenoxy]-4-methyl-3-pyridyl]methyl]-3-fluoro-N-(methylsulfamoyl)pyridin-2-amine]	< 10	
< 10	[2H]C([2H])([2H])c1ccc(Nc2cncc(Cc3ccnc(NS(=O)(=O)NC)c3F)c2C)c(F)c1 [Example 104, 3-fluoro-4-[[5-[2-fluoro-4-(trideuteriomethyl)anilino]-4-methyl-3-pyridyl]methyl]-N-(methylsulfamoyl)pyridin-2-amine]	< 10	
< 10	CNS(=O)(=O)Nc1nccc(Cc2cncc(Nc3ccc(C(C)C)cc3F)c2C)c1F [Example 58, 3-fluoro-4-[[5-(2-fluoro-4-isopropyl-anilino)-4-methyl-3-pyridyl]methyl]-N-(methylsulfamoyl)pyridin-2-amine]	< 10	
< 10	CNS(=O)(=O)Nc1nccc(Cc2cncc(Nc3ccc(C4CC4)cc3F)c2C)c1F [Example 47, 4-[[5-(4-cyclopropyl-2-fluoro-anilino)-4-methyl-3-pyridyl]methyl]-3-fluoro-N-(methylsulfamoyl)pyridin-2-amine]	< 10	
